What follows are compounds tested against T1, human GPR68 (Homo sapiens, UniProt Q15743) (assay: GPR68 Biochemical Assay (Promega GloSensor cAMP assay, GPR68 antagonism)). Conditions: HEK293T cells transiently expressing hGPR68, antagonism of pH 5.5 stimulated cAMP, 15 min, read-out: hGPR68 IC50.
T1 construct: encoding full-length human GPR68 (uniprot ID: Q15743); expressed in transfected cells; host or cells: HEK293T
Assay type: cell-based
Procedure: GPR68 antagonism was determined using the Promega GloSensor™ CAMP assay (F. I. Wang et al., Methods 2021, S1046-2023 (21) 00249-8). HEK293T cells (obtained from ECACC, Cat 12022001, Lot no. 17E044) were cultured in T175 flasks (Greiner, Cat 660175) in DMEM (Gibco, Cat 11995-065) supplemented with 10% Fetal Bovine Serum (Gibco Cat 16000-044), and 100 u/mL Pen-Strep (Gibco, Cat 15140) at 37° C. and 5% CO2. GPR68 expression was achieved by transient transfection with a mammalian expression plasmid encoding full-length human GPR68 (uniprot ID: Q15743) under control of a CMV promoter. The day before transfection, cell media was aspirated and HEK293T cells were incubated with accutase (Sigma, Cat A6964) for 3-4 minutes 37° C. and 5% CO2 before being manually detached with excess DMEM and trituration. Cell density was determined by automated cell counting (Countess, Invitrogen) and adjusted to 6×10^6 cells/20 mL and transferred to 15 cm dishes (Thermo Fisher, Cat 130183) for overnight incubation at 37° C. and 5% CO2. The next day separate mammalian expression plasmids encoding hGPR68 (4 μg) and Promega GloSensor (8 μg) were diluted to 1 mL in Opti-MEM (Thermo Fisher Scientific, Cat 31985070) and incubated with 30 μL of lipofectamine 3000 (also diluted to 1 mL in Opti-MEM) for 15 minutes at room temperature and subsequently added dropwise to the plated cells. Post transfection cells were then incubated at 37° C. and 5% CO2 for at least 16 hours before transfer to assay plates the following day. Transfer was conducted by washing cells with PBS and incubating with accutase for 3-4 minutes 37° C. and 5% CO2 before being manually detached with excess DMEM and mild trituration. The suspension was then centrifuged at 192 RCF for 4 minutes in a 50 mL centrifuge tube (Greiner, Cat 227261).
Supernatant was removed by aspiration and the cell pellet was resuspended in DMEM+1% dialysed FBS (Gibco, Cat 26400-044) and 100 u/mL Pen-Strep to a cell density of 500 cells/μL. Cells were plated into poly-L-Lysine coated 384-well white assay plates (Corning, Cat 3570) at a final volume of 40 µL and a density of 20,000 cells/well before overnight incubation at 37° C. and 5% CO2. The following day media was manually ejected from the 384-well assay plate and replaced with 10 μL GloSensor substrate (Promega, Cat E1291) prepared in pH 8.0 assay buffer (1×HBSS, 10 mM HEPES, 10 mM MOPS). Cells were incubated with this solution for 60 minutes at room temperature in the dark. Test compounds or an equivalent volume of DMSO (vehicle) were added to compounds plates to create a 9-point, half-log concentration series for each compound with a maximum final assay concentration of 50 μM and a consistent final DMSO concentration of 0.5%. Assay buffer with 0.1% BSA and 0.01% ascorbic acid was prepared at three pHs: pH 8.0, pH 5.5 and pH 4.5. pH 8.0 and 4.5 were added to the compound plate as maximum and minimum effect controls whilst pH 5.5 was added to all compound wells to stimulate GPR68 to a level corresponding to […] of maximal stimulation after addition to the cells already in pH 8.0 (assay acceptance criteria range 70-90%). DMSO/Compound and buffer was added to the plated cells containing the GloSensor substrate and incubated for 15 minutes at room temperature before being read on a microplate reader (BMG PHERAstar, optic module LUM Plus with Gain 3600). Data was exported and analysed in excel and Graphpad prism (version 9). Assay QC acceptance criteria required the maximum and minimum controls to return a Z′≥0.5, the EC80 to be 80%±10% of expected and the reference ligand pIC50 to be within one-half-log unit of its historical IC50. Percent inhibition was calculated using the mean EC80 (pH 5.5) and mean minimum effect control (pH 8.0). Data were plotted as percentage inhibition, average±SEM. IC50, Emax, Emin, Actual max, actual min, R^2 and fit confidence were calculated using Graphpad Prism's sigmoidal dose-response function.

T1 sequence (Q15743 whole entry): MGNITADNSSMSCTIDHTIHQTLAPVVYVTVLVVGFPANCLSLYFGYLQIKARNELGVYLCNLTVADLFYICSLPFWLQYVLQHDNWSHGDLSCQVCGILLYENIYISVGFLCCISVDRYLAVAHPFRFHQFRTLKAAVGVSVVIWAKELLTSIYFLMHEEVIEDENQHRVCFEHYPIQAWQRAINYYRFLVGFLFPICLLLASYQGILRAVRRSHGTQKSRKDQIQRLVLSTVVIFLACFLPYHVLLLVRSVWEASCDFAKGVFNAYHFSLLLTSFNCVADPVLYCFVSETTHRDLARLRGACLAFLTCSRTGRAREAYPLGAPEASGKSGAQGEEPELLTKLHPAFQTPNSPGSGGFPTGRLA

| Structure (SMILES) | IC50 |
| --- | --- |
| COCc1nn2c(C(=O)N[C@H]3C[C@@H](OC(F)(F)F)C3)cc(C)nc2c1C(N)=O [Compound 206, 2-(methoxymethyl)-5-methyl-N7-[cis-3-(trifluoromethoxy)cyclobutyl]pyrazolo[1,5-a]pyrimidine-3,7-dicarboxamide] | 50 to 500 nM |
| NC(=O)c1cnn2c(C(=O)NC3CC(F)(F)C3)ccnc12 [Compound 102, N7-(3,3-difluorocyclobutyl)pyrazolo[1,5-a]pyrimidine-3,7-dicarboxamide] | 500 to 5000 nM |
| Cc1nn2c(C(=O)NC3Cc4cccnc4C3)ccnc2c1C(N)=O (stereo not shown) [Compound 49, N7-(6,7-dihydro-5H-cyclopenta[b]pyridin-6-yl)-2-methyl-pyrazolo[1,5-a]pyrimidine-3,7-dicarboxamide] | 500 to 5000 nM |
| CCC1(CC)CC(NC(=O)c2ccnc3c(C(N)=O)cnn23)C1 [Compound 10, N7-(3,3-diethylcyclobutyl)pyrazolo[1,5-a]pyrimidine-3,7-dicarboxamide] | 50000 to 100000 nM |
| COCc1nn2c(C(=O)NC3COc4cc(F)cc(F)c4C3)ccnc2c1C(N)=O (stereo not shown) [Compound 185, N7-(5,7-difluorochroman-3-yl)-2-(methoxymethyl)pyrazolo[1,5-a]pyrimidine-3,7-dicarboxamide] | 50 to 500 nM |
| N#Cc1nn2c(C(=O)NC3Cc4ccccc4C3)ccnc2c1C(N)=O [Compound 21, 2-cyano-N7-indan-2-yl-pyrazolo[1,5-a]pyrimidine-3,7-dicarboxamide] | 50 to 500 nM |

Next, values leading:

| IC50 | Structure (SMILES) |
| --- | --- |
| < 50 nM | COCc1nn2c(C(=O)NCc3ccc(F)cc3F)ccnc2c1C(N)=O [Compound 83, N7-[(2,4-difluorophenyl)methyl]-2-(methoxymethyl)pyrazolo[1,5-a]pyrimidine-3,7-dicarboxamide] |
| < 50 nM | [2H]C([2H])([2H])OCc1nn2c(C(=O)N[C@H]3C[C@@H](OC(F)(F)F)C3)ccnc2c1C(N)=O [Compound 157, 2-(trideuteriomethoxymethyl)-N7-[cis-3-(trifluoromethoxy)cyclobutyl]pyrazolo[1,5-a]pyrimidine-3,7-dicarboxamide] |
| < 50 nM | COCc1nc2c(C(=O)NCc3ccc(F)cc3)ccnn2c1C(N)=O [Compound 110, N8-[(4-fluorophenyl)methyl]-2-(methoxymethyl)imidazo[1,2-b]pyridazine-3,8-dicarboxamide] |
| < 50 nM | COCc1nn2c(C(=O)Nc3ccc(F)cc3F)ccnc2c1C(N)=O [Compound 68, N7-(2,4-difluorophenyl)-2-(methoxymethyl)pyrazolo[1,5-a]pyrimidine-3,7-dicarboxamide] |
| < 50 nM | COCc1nn2c(C(=O)N[C@@H]3COc4c3ccc(F)c4F)ccnc2c1C(N)=O [Compound 238, N7-[(3S)-6,7-difluoro-2,3-dihydrobenzofuran-3-yl]-2-(methoxymethyl)pyrazolo[1,5-a]pyrimidine-3,7-dicarboxamide] |
| < 50 nM | NC(=O)c1c(C2CC2)nn2c(C(=O)NC3CC(F)(F)C3)ccnc12 [Compound 136, 2-cyclopropyl-N7-(3,3-difluorocyclobutyl)pyrazolo[1,5-a]pyrimidine-3,7-dicarboxamide] |
| < 50 nM | COCc1nn2c(C(=O)N[C@H]3CCc4ccccc4C3)ccnc2c1C(N)=O [Compound 79, 2-(methoxymethyl)-N7-[(2S)-tetralin-2-yl]pyrazolo[1,5-a]pyrimidine-3,7-dicarboxamide] |
| < 50 nM | NC(=O)c1c(C2CC2)nn2c(C(=O)NC3Cc4cscc4C3)ccnc12 [Compound 134, 2-cyclopropyl-N7-(5,6-dihydro-4H-cyclopenta[c]thiophen-5-yl)pyrazolo[1,5-a]pyrimidine-3,7-dicarboxamide] |
| < 50 nM | COCc1nn2c(C(=O)NC3CC(F)(F)c4ccccc43)ccnc2c1C(N)=O (single isomer, unassigned) [Compound 174, N7-(3,3-difluoroindan-1-yl)-2-(methoxymethyl)pyrazolo[1,5-a]pyrimidine-3,7-dicarboxamide] |

Same assay, conditions: hGPR68 IC50, HEK293T cells transiently expressing hGPR68, antagonism of pH 5.5 stimulated cAMP, 15 min

| IC50 | Structure (SMILES) |
| --- | --- |
| < 50 nM | NC(=O)c1c(C2CCOC2)nn2c(C(=O)NC3Cc4ccccc4C3)ccnc12 (stereo not shown) [Compound 37, N7-indan-2-yl-2-tetrahydrofuran-3-yl-pyrazolo[1,5-a]pyrimidine-3,7-dicarboxamide] |

From US20260308159A1, “BICYCLIC HETEROARYLAMIDES HAVING GPR68 MODULATING ACTIVITY” (RECURSION PHARMACEUTICALS, INC., priority 2023, published 2026)
